Results: PubChem BioAssay (NCI)
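In this assay, cells in 96-well plates receive the compound at five concentrations for 48 hours. Endpoints are linearly interpolated between the surrounding concentrations. GI50 marks 50% less growth. TGI is the concentration that stops growth completely.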

Columns and labels:
Test in all cases: NCI anticancer screen, dose series, 48 h
[1] = tested on: NCI-H23 lung
[2] = tested on: U251 CNS
[3] = tested on: COLO 205 colon
[4] = tested on: NCI-H460 lung
[5] = tested on: HT29 colon
[6] = tested on: OVCAR-8 ovarian
[7] = tested on: RXF 393 renal
[8] = tested on: HL-60(TB) leukemia
[9] = tested on: HOP-92 NSCLC
[10] = tested on: K-562 leukemia
[11] = tested on: UACC-62 melanoma
[12] = tested on: SF-539 CNS
[13] = tested on: MALME-3M melanoma
[14] = tested on: OVCAR-3 ovarian
[15] = tested on: MCF7 breast
[16] = tested on: BT-549 breast
[17] = tested on: PC-3 prostate
[18] = tested on: UO-31 renal
[19] = tested on: DU-145 prostate
[20] = tested on: HCT-116 colon
[21] = tested on: CAKI-1 renal
[22] = tested on: SK-MEL-28 melanoma
[23] = tested on: 786-0 renal
[24] = tested on: TK-10 renal
[25] = tested on: KM12 colon
[26] = tested on: NCI-H226 lung
[27] = tested on: IGROV1 ovarian
[28] = tested on: T-47D breast
[29] = tested on: NCI/ADR-RES ovarian
[30] = tested on: LOX IMVI melanoma
[31] = tested on: OVCAR-4 ovarian
[32] = tested on: HS 578T breast
[33] = tested on: SNB-75 CNS
[34] = tested on: A498 renal
[35] = tested on: HCC-2998 colon
[36] = tested on: M14 melanoma
[37] = tested on: NCI-H522 lung
[38] = tested on: SNB-19 CNS
[39] = tested on: MDA-MB-435
[40] = tested on: SK-OV-3 ovarian
[41] = tested on: MDA-MB-231 breast
[42] = tested on: SK-MEL-2 melanoma
[43] = tested on: HCT-15 colon
[44] = tested on: UACC-257 melanoma
[45] = tested on: CCRF-CEM leukemia
[46] = tested on: MDA-MB-468 breast
[47] = tested on: RPMI-8226 leukemia
[48] = tested on: ACHN renal
[49] = tested on: MOLT-4 leukemia
[50] = tested on: OVCAR-5 ovarian
[51] = tested on: SF-268 CNS
[52] = tested on: SF-295 CNS
[53] = tested on: SW-620 colon
[54] = tested on: SK-MEL-5 melanoma
[55] = tested on: EKVX NSCLC
[56] = tested on: SN12C renal
[57] = tested on: HOP-62 NSCLC
[58] = tested on: A549 NSCLC

For `CN(C)CCOc1ccc(C(=O)C2[C@H](c3ccc(Cl)cc3)[C@@H](c3ccccc3)NC23C(=O)Nc2ccc(Br)cc23)cc1` (stereo partly specified), the GI50 [1] was 2.62 µM, the TGI [1] was 5.03 µM and the GI50 [2] was 2.59 µM. For the same compound, the TGI [2] was 4.96 µM, the GI50 [3] was 2.75 µM and the TGI [3] was 5.37 µM. For the same compound, the GI50 [4] was 2.71 µM, the TGI [4] was 5.22 µM and the GI50 [5] was 2.47 µM. The TGI [5] was 5.2 µM, the GI50 [6] was 2.58 µM and the TGI [6] was 5.01 µM. The GI50 [7] was 1.65 µM, the TGI [7] was 3.61 µM and the GI50 [8] was 2.89 µM. For the same compound, the TGI [8] was 6.75 µM, the GI50 [9] was 1.74 µM and the TGI [9] was 3.8 µM. It also gave a GI50 [10] of 2.73 µM, a TGI [10] of 9.03 µM and a GI50 [11] of 2.5 µM. For the same compound, the TGI [11] was 4.74 µM, the GI50 [12] was 2.64 µM and the TGI [12] was 4.89 µM. For the same compound, the GI50 [13] was 2.43 µM, the TGI [13] was 4.81 µM and the GI50 [14] was 2.24 µM. For the same compound, the TGI [14] was 4.57 µM, the GI50 [15] was 2.41 µM and the TGI [15] was 5.05 µM. For the same compound, the GI50 [16] was 3 µM, the TGI [16] was 5.82 µM and the GI50 [17] was 2.48 µM. It also gave a TGI [17] of 4.94 µM, a GI50 [18] of 2.3 µM and a TGI [18] of 4.63 µM. For the same compound, the GI50 [19] was 2.7 µM, the TGI [19] was 5 µM and the GI50 [20] was 2.4 µM. The TGI [20] was 4.82 µM, the GI50 [21] was 2.38 µM and the TGI [21] was 4.54 µM. The GI50 [22] was 2.65 µM, the TGI [22] was 4.88 µM and the GI50 [23] was 2.68 µM. The TGI [23] was 4.95 µM, the GI50 [24] was 2.67 µM and the TGI [24] was 5.61 µM. It also gave a GI50 [25] of 2.8 µM, a TGI [25] of 5.46 µM and a GI50 [26] of 2.65 µM. It also gave a TGI [26] of 5.6 µM, a GI50 [27] of 2.51 µM and a TGI [27] of 4.79 µM. For the same compound, the GI50 [28] was 2.33 µM, the TGI [28] was 5.18 µM and the GI50 [29] was 2.68 µM. It also gave a TGI [29] of 5.07 µM, a GI50 [30] of 2.42 µM and a TGI [30] of 4.61 µM. It also gave a GI50 [31] of 2.47 µM, a TGI [31] of 4.91 µM and a GI50 [32] of 2.18 µM. The TGI [32] was 6.88 µM, the GI50 [33] was 1.7 µM and the TGI [33] was 5.81 µM. It also gave a GI50 [34] of 2.53 µM, a TGI [34] of 4.99 µM and a GI50 [35] of 2.22 µM. The TGI [35] was 4.39 µM, the GI50 [36] was 2.89 µM and the TGI [36] was 5.45 µM. For the same compound, the GI50 [37] was 2.87 µM, the TGI [37] was 5.56 µM and the GI50 [38] was 2.63 µM. For the same compound, the TGI [38] was 4.94 µM, the GI50 [39] was 2.59 µM and the TGI [39] was 4.84 µM. The GI50 [40] was 4.39 µM, the TGI [40] was 16.3 µM and the GI50 [41] was 2.41 µM. For the same compound, the TGI [41] was 4.59 µM, the GI50 [42] was 2.68 µM and the TGI [42] was 5.16 µM. The GI50 [43] was 2.6 µM, the TGI [43] was 4.95 µM and the GI50 [44] was 2.53 µM. It also gave a TGI [44] of 4.94 µM, a GI50 [45] of 3.09 µM and a TGI [45] of 7.86 µM. The GI50 [46] was 2.4 µM, the TGI [46] was 4.68 µM and the GI50 [47] was 3.33 µM. It also gave a TGI [47] of 8.37 µM, a GI50 [48] of 2.55 µM and a TGI [48] of 4.77 µM. For the same compound, the GI50 [49] was 2.58 µM, the TGI [49] was 6.53 µM and the GI50 [50] was 2.23 µM. The TGI [50] was 4.34 µM, the GI50 [51] was 2.47 µM and the TGI [51] was 5.46 µM. The GI50 [52] was 2.48 µM, the TGI [52] was 4.68 µM and the GI50 [53] was 2.63 µM. The TGI [53] was 5.17 µM, the GI50 [54] was 2.52 µM and the TGI [54] was 4.71 µM. For the same compound, the GI50 [55] was 2.24 µM, the TGI [55] was 4.4 µM and the GI50 [56] was 2.35 µM. The TGI [56] was 4.55 µM, the GI50 [57] was 2.69 µM and the TGI [57] was 5.56 µM. The GI50 [58] was 2.51 µM and the TGI [58] was 4.85 µM.
